In PMC6858848 (Bioorganic & medicinal chemistry letters, 2019):
Converted amounts (≈) assume the structure as drawn.

Experiments:
hERG channels = hERG channels (Homo sapiens, UniProt Q12809); assay: hERG thallium flux assay in HEK 293 cells; conditions: for hERG flux IC50: HEK 293 cells expressing hERG channels
ACh release = conditions: read-out: ACh release EC50; cited from earlier work
[1] = system: mouse model of Parkinson's disease; conditions: cited from earlier work
hepG2 cells = conditions: CellTiter-Glo
40 targets, mostly GPCRs = conditions: 10 μM, NIMH PDSP
[2] = cited from earlier work
Acid stability = format: physicochemical; conditions: HPLC peak areas (254 nm) after heating at 60°C in 1:1 MeCN:0.2N aq. HCl for 24 h, 0.3 mM
Alzheimer's patients = conditions: cited from earlier work
Kv7.2 channels = Kv7.2 channels (Homo sapiens, UniProt O43526); assay: Kv7.2 thallium flux assay in HEK 293 cells; format: cell-based; conditions: for fold lower potency in Kv7.2 assay relative to DMP 543: compared with DMP 543
Kv7.2 channels, sequence (O43526 whole entry): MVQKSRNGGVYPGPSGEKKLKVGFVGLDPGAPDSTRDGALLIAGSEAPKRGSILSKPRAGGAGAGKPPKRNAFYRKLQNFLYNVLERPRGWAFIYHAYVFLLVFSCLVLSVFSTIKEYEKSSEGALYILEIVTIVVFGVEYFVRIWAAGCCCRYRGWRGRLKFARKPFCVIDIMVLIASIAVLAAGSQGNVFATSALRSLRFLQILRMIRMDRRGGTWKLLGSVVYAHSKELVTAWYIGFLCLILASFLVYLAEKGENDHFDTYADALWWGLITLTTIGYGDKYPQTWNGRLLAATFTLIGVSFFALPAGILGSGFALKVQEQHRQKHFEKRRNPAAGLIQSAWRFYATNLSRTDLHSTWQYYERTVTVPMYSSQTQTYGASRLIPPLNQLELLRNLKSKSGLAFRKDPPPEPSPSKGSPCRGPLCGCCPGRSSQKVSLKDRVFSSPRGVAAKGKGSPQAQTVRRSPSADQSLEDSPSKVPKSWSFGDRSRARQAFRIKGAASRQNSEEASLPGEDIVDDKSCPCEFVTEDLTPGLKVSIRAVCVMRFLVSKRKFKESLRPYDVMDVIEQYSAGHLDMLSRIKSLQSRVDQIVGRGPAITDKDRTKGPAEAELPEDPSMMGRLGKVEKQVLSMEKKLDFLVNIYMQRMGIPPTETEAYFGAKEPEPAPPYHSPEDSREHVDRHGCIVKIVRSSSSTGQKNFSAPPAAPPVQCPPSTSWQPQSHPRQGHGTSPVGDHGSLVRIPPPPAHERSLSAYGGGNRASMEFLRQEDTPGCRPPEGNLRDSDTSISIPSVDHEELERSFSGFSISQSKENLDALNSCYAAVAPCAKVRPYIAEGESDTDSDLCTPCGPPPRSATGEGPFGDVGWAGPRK

hERG channels, sequence (Q12809 whole entry): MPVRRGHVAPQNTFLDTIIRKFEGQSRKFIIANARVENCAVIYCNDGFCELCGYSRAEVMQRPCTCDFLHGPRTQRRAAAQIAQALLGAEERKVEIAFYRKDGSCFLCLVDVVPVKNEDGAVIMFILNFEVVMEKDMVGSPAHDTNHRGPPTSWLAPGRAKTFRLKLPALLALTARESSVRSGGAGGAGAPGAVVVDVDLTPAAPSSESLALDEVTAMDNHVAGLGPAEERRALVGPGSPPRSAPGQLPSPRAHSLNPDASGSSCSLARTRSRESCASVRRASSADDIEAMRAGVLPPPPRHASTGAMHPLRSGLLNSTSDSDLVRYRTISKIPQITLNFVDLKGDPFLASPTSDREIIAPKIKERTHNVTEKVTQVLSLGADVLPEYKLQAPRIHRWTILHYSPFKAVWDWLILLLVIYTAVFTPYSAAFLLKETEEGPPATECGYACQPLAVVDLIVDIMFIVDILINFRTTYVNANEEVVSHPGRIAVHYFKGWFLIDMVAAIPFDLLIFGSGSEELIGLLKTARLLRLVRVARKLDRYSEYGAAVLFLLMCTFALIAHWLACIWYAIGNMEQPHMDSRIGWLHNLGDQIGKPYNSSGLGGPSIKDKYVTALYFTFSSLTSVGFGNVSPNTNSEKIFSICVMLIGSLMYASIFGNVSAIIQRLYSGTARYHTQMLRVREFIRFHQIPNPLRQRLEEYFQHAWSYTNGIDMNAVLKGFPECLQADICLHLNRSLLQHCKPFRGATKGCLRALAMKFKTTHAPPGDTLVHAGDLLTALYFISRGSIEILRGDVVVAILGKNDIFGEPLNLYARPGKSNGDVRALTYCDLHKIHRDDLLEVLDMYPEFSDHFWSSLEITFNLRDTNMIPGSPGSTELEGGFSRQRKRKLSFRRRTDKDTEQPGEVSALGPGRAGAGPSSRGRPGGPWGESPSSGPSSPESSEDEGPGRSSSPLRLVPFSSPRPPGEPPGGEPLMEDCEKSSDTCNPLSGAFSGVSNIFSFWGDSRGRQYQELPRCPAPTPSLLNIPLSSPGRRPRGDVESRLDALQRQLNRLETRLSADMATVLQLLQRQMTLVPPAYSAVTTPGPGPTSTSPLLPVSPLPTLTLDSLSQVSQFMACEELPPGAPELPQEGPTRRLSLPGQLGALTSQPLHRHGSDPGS

Q: Which “hERG flux IC50” value (hERG channels; thallium flux) does the source give for O=C1c2ccccc2C(Cc2ccnnc2)(Cc2ccnnc2)c2ccccc21 [compound 7] here?
A: The value was “inactive”.

Q: With O=C1c2ccccc2C(Cc2ccncc2)(Cc2ccncc2)c2ccccc21 [XE991, 10,10-Bis(4-Pyridinylmethyl)-9(10H)-Anthracenone] as the compound, how does the EC50 (ACh release) read?
A: The EC50 was 400 nM.

Q: What about the neuroprotection [1] of the same compound?
A: The neuroprotection was “acts as a neuroprotective agent”.

Q: And the IC50 (hERG channels)?
A: Its IC50 is greater than 32000 nM.

Q: With O=C1c2ccccc2C(Cc2ccnc(F)c2)(Cc2ccnc(F)c2)c2ccccc21 [DMP 543, 10,10-Bis[(2-Fluoro-4-Pyridinyl)Methyl]-9(10 H)-Anthracenone] as the compound, how does the solubility kinetic (physchem) read?
A: Its solubility kinetic is 22 µM (≈ 9.07 µg/mL).

Q: What about the “cytotoxicity CC50, hepG2 cells” value (hepG2 cells) of the same compound?
A: The value was “low cytotoxicity”.

Q: And the “Off-target activities: number of targets (of 40) with >30% binding” value (40 targets, mostly GPCRs)?
A: The value was 6.

Q: What about the aqueous solubility [2] of the same compound?
A: Its aqueous solubility is 6 µM (≈ 2.47 µg/mL).

Q: With O=C1c2ccccc2C(Cc2c(F)cncc2F)(Cc2c(F)cncc2F)c2ccccc21 [compound 6] as the compound, how does the “acid stability, percent remaining” value (Acid stability) read?
A: Its value is “no degradation”.

Q: With Cc1cc(CC2(Cc3ccnc(C)c3)c3ccccc3C(=O)c3ccccc32)ccn1 [compound 8] as the compound, how does the “hERG flux IC50” value (hERG channels; thallium flux) read?
A: The value was “inactive”.

Q: For O=C1N(c2ccccc2)c2ccccc2C1(Cc1ccncc1)Cc1ccncc1 [Linopirdine, 3,3-Bis(4-Pyrindinylmethyl)-1-Phenylindolin-2-One], which “efficacy as cognitive enhancer in phase 3 trial” value (Alzheimer's patients) is on record?
A: Its value is “ineffective”.

Q: And the “tolerability in phase 3 trial” value (Alzheimer's patients)?
A: Its value is “well-tolerated”.

Q: With O=C1c2ccccc2C(Cc2ccnc(C(F)(F)F)c2)(Cc2ccnc(C(F)(F)F)c2)c2ccccc21 [compound 5] as the compound, how does the “hERG flux IC50” value (hERG channels; thallium flux) read?
A: Its value is “inactive”.

Q: What about the “fold lower potency in Kv7.2 assay relative to DMP 543” value (Kv7.2 channels) of the same compound?
A: Its value is ~ 100 fold.

Q: With O=C1c2ccccc2C(Cc2ccnnc2)(Cc2c(F)cncc2F)c2ccccc21 [JDP-107 (18)] as the compound, how does the “acid stability, percent remaining” value (Acid stability) read?
A: The value was “no degradation”.

Q: And the “Off-target activities: number of targets (of 40) with >30% binding” value (40 targets, mostly GPCRs)?
A: The value was 5.

Q: What about the IC50 (hERG channels) of the same compound?
A: Its IC50 is greater than 32000 nM.

Q: And the “hERG channel inhibition at 1 μM” value (hERG channels; 1 μM, thallium flux)?
A: Its value is “no inhibition”.

Q: And the IC50 (Kv7.2 channels)?
A: The IC50 was 180 nM.

Q: And the “fold lower potency in Kv7.2 assay relative to DMP 543” value (Kv7.2 channels)?
A: Its value is “approximately 3 fold”.
